Reference: patent publication US20230136297A1, “Methods Of Treating Fabry Disease In Patients Having A Mutation In The GLA Gene” (Amicus Therapeutics, Inc., priority 2020, published 2023)
Where a chain is given by its changes, count along the chain named.

Tests used:
Assay in all cases: α-Gal A activity in lysates of transfected HEK-293 cells ± migalastat (HEK assay)
Type in all cases: cell-based
[1] = target: T1, α-Gal A mutant form F169I (Homo sapiens, UniProt P06280, F169I)
T1 construct: expressed in transfected cells; host or cells: HEK-293
T1 sequence (P06280 32-429 F169I): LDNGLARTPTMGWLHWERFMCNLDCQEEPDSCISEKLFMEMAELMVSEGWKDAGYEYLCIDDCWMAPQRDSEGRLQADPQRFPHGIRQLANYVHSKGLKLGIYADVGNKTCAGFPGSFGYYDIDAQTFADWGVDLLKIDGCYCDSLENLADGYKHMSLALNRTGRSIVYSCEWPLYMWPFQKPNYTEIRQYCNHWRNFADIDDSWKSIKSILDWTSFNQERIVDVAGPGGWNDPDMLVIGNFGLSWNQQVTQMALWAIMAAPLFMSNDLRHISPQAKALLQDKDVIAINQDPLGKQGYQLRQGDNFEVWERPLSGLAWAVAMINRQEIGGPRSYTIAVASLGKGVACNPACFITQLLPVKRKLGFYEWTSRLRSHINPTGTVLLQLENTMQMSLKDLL
Summary of the method: (§1)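 Activity is reported as nmol of free 4-MU released per mg protein per hour (nmol/mg/hr).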

[2] = target: T2, α-Gal A mutant form F159C (Homo sapiens, UniProt P06280, F159C)
T2 construct: expressed in transfected cells; host or cells: HEK-293
T2 sequence (P06280 32-429 F159C): T1 sequence (P06280 32-429 F169I) with F128C, I138F
Summary of the method: as §1

[3] = target: T3, α-Gal A mutant form A160D (Homo sapiens, UniProt P06280, A160D)
T3 construct: expressed in transfected cells; host or cells: HEK-293
T3 sequence (P06280 32-429 A160D): T1 sequence (P06280 32-429 F169I) with A129D, I138F
Summary of the method: as §1

[4] = target: T4, α-Gal A mutant form D165N (Homo sapiens, UniProt P06280, D165N)
T4 construct: expressed in transfected cells; host or cells: HEK-293
T4 sequence (P06280 32-429 D165N): T1 sequence (P06280 32-429 F169I) with D134N, I138F
Summary of the method: as §1

[5] = target: T5, α-Gal A mutant form M290V (Homo sapiens, UniProt P06280, M290V)
T5 construct: expressed in transfected cells; host or cells: HEK-293
T5 sequence (P06280 32-429 M290V): T1 sequence (P06280 32-429 F169I) with I138F, M259V
Summary of the method: as §1

[6] = 10 μM migalastat minus baseline
[7] = HEK-293 lysates, 10 μM migalastat 5 days, mean ± SEM

- Absolute increase (% WT) [1, 6]: 35.9 % WT
- Relative increase ([1]; 10 μM migalastat ÷ baseline): 3.44
- 10 μM migalastat α-Gal A activity [1, 7]: 15903 ± 567 nmol/mg/h
- 10 μM migalastat α-Gal A activity (% WT) [1, 7]: 51.7 ± 2.2 % WT
- Absolute increase (% WT) [2, 6]: 15.8 % WT
- Relative increase ([2]; 10 μM migalastat ÷ baseline): 2.07
- 10 μM migalastat α-Gal A activity [2, 7]: 9238 ± 513 nmol/mg/h
- 10 μM migalastat α-Gal A activity (% WT) [2, 7]: 29.6 ± 2.3 % WT
- Absolute increase (% WT) [3, 6]: 25.9 % WT
- Relative increase ([3]; 10 μM migalastat ÷ baseline): 1.83
- 10 μM migalastat α-Gal A activity [3, 7]: 18238 ± 1048 nmol/mg/h
- 10 μM migalastat α-Gal A activity (% WT) [3, 7]: 56 ± 4.1 % WT
- Absolute increase (% WT) [4, 6]: 34 % WT
- Relative increase ([4]; 10 μM migalastat ÷ baseline): 6.86
- 10 μM migalastat α-Gal A activity [4, 7]: 10562 ± 1017 nmol/mg/h
- 10 μM migalastat α-Gal A activity (% WT) [4, 7]: 40 ± 2.7 % WT
- Absolute increase (% WT) [5, 6]: 61.5 % WT
- Relative increase ([5]; 10 μM migalastat ÷ baseline): 1.94
- 10 μM migalastat α-Gal A activity [5, 7]: 45804 ± 2927 nmol/mg/h
- 10 μM migalastat α-Gal A activity (% WT) [5, 7]: 128.1 ± 8.2 % WT
SMILES: OC[C@H]1NC[C@H](O)[C@@H](O)[C@H]1O [migalastat, (2R,3S,4R,5S)-2-(hydroxymethyl) piperdine-3,4,5-triol]
